Tested on: HIV-1
Conditions: 10 μM, control inhibitor of infection

In the case of `Cc1cn([C@H]2C[C@H](N=[N+]=[N-])[C@@H](CO)O2)c(=O)[nH]c1=O` [AZT], the “Inhibition of HIV-1 infection of MAGIC-5B cells (in words)” value is reported as “totally suppressed”.

Reference: article PMC516463 (Evidence-based Complementary and Alternative Medicine, 2004)
